Results from article PMC8750527 (Cancers, 2021).
Read-outs that look alike come from different tables or passages of the source.

Key:
C8-D1A = experiment: MTT assay, 48 h exposure, murine primary astrocytes; type: cell-based; conditions: Mus musculus, C8-D1A
Method: (§1) HDF (3000 cells), C8-D1A (5000 cells), D458 (5000 cells), DAOY (2000 cells), HD-MB03 (10,000 cells) and CHLA-01-Med (10,000 cells) were seeded at an approximate confluency of 50% in 96-well plates (Corning Inc., Corning, NY, USA) in 100 µL medium per well. A range from 50 nM to 150 µM of every drug was tested. The effects of the antiangiogenic compounds were measured using a 3-[4,5-dimethylthiazol-2yl]-diphenyltetrazolium bromide (MTT) colorimetric assay (Sigma, Lyon, France) according to the manufacturer’s instructions. When applicable, IC50 was calculated using the nonlinear regression method of the Prism 5 software (Graphpad Software Inc., San Diego, CA, USA). […] An MTT assay was conducted as described above to assess the fitness of the cells.

DAOY [1] = experiment: MTT assay, 48 h exposure, DAOY MB cells; type: cell-based, human; conditions: for IC50: Homo sapiens, Daoy, MTT, 48 h exposure, mean ± SEM
Method: as §1

HD-MB03 [2] = experiment: MTT assay, 48 h exposure, HD-MB03 MB cells; type: cell-based, human; conditions: for IC50: Homo sapiens, HD-MB03, MTT, 48 h exposure, mean ± SEM
Method: as §1

D458 = experiment: MTT assay, 48 h exposure, D458 MB cells; type: cell-based, human; conditions: for IC50: Homo sapiens, MTT, 48 h exposure, mean ± SEM
Method: as §1

MB cells [3] = experiment: Proliferation index assay, MB cells; type: cell-based, human; conditions: after 120 h; axitinib 5 µM, etoposide 1 µM
Method: DAOY, D458, D283, C8-D1A and HDF (30,000 cells per well) and HD-MB03 (50,000 cells per well) were seeded in 24-well plates for proliferation assays.

DAOY [4] = experiment: Cumulative population doubling (CPD), DAOY; type: cell-based, human; conditions: continuous treatment; axitinib 5 µM, etoposide 1 µM
Method: (§2) Cumulative population doubling (CPD) was assessed as previously described. Briefly, depending on the cell line, a variable number of cells corresponding to about 30% confluency were seeded in triplicate in 60 mm diameter Petri dishes. […] The cells were harvested when the confluency reached about 90%, counted and plated again at a dilution of 1/20. CPD was calculated as previously described.

HD-MB03 [5] = experiment: Cumulative population doubling (CPD), HD-MB03; type: cell-based, human; conditions: continuous treatment; axitinib 5 µM, etoposide 1 µM
Method: as §2

[6] = test system: C8-D1A/HD-MB03 mixed spheroids; experiment: 3D mixed spheroids of astrocytes and MB cells; type: cell-based; conditions: 7 days; axitinib 5 µM or etoposide 1 µM
Method: C8-D1A cells were stained with the green fluorescent probe neuro-DiO (cat. number 60015, Biotium, Fremont, CA, USA) according to the manufacturer’s protocol. C8-D1A-neuroDio cells (150,000) and HD-MB03-mCherry or DAOY-mCherry cells (50,000) were plated in 12-well plates. […] Fluorescence images of the cells were taken with a DMI400 inverted microscope (Leica Microsystemes SAS, Nanterre, France) equipped with a 40× objective and a Zyla 5.5 camera (Andor Technologies, Belfast, UK). The cells were then trypsinized and the number of both cell types was quantified using a Melody FACS (BD Biosciences, Frankton Lake, NJ, USA) with a 488 nm laser beam. Analysis of the FACS data was conducted with the Flowjo software (Tree Star Inc., Ashland, OR, USA).
Two thousand cells were seeded in ultralow-adhesion 96-well plates (Corning Inc., Corning, NY, USA). […] Pictures were taken with an AMG Evos microscope 40× objective (Thermo Fisher Scientific Inc, Waltham, MA, USA) and the spheroid areas were measured using the ImageJ software (NIH, Bethesda, MD, USA).

[7] = test system: HD-MB03 intracranial tumors
Method: HD-MB03-Luc spheroids were stereotaxically implanted into the brains of 9-week-old Rj:NMRI-Foxn1 nude (nu/nu) female mice (Janvier Labs, Le Genest-Saint-Isle, France). Briefly, MB spheroids were generated with 2500 cells grown for 48 h in ultralow-adhesion spheroid 96-well plates (Corning, Corning, NY, USA) and three spheroids per mouse were implanted into the left cerebellar hemisphere (2 mm posterior, 1.5 mm left of the lambda point and 2.5 mm deep) using a Hamilton syringe fitted with a needle (Hamilton, Bonaduz, Switzerland) and following the procedure already described. […] Oral gavage with a vehicle solution was used as the control. Mouse survival was based on the presence of neuropathological symptoms including gait defects and a loss of weight over 10% as endpoints. A minimum of five mice per group was chosen to yield sufficient statistical power (p < 0.05, one-way ANOVA). These experiments were carried out in strict accordance with the recommendations in the Guide for the Care and Use of Laboratory Animals. Our experiments were approved by Direction de l’Action Sanitaire et Sociale of the Principality of Monaco and the ethics committee of Centre Scientifique de Monaco.
(§3) Tumor samples were recovered from the animals and embedded in the OCT compound according to the manufacturer’s protocol (Thermo Fisher Scientific Inc., Waltham, MA, USA). After that, 5 µm thin sections were prepared with a cryostat (Leica Microsystems, Wetzlar, Germany). Incubation was carried out with the following antibodies diluted at 1:1000 in TBS supplemented with 1% horse serum and 1% BSA for 20 min at room temperature: anti-Ki67 (cat. number ab16667, Abcam, Cambridge, UK), anti-CD31 (cat. number 550274, BD Biosciences, Frankton Lake, NJ, USA) or anti-αSMA (cat. number A2547, Merck Millipore, Burlington, MA, USA). The preparations were then washed with TBS–0.025% Triton, incubated with anti-rabbit Alexa488 and anti-mouse Alex-555-coupled secondary antibodies (Cell Signaling Technology, Danvers, MA, USA), washed with TBS–0.025% Triton, and the nuclei were counterstained with Hoechst33342 (Thermo Fisher Scientific, Waltham, MA, USA). Fluorescence images of the cells were taken with a DMI400 inverted microscope equipped with a 40× objective (Leica Microsystemes, Nanterre, France) and a Zyla 5.5 camera (Andor Technologies, Belfast, UK) powered by the Micromanager software. At least one cross-section of nonoverlapping images of each tumor was acquired. All the images were then quantified with the CellProfiler 3.0 software.

[8] = test system: subcutaneous HD-MB03 tumors; experiment: Subcutaneous HD-MB03 xenografts; type: in vivo, mouse; conditions: oral, thrice a week
Method: For subcutaneous xenograft experiments, tumor cells expressing the luciferase (350,000 HDMB-Luc cells and 1.10^6 DAOY-Luc cells) were resuspended in 200 µL of 5 µg/mL Matrigel (Corning Inc., Corning, NY, USA) and injected subcutaneously in the flank of 5-week-old Rj:NMRI-Foxn1 nude (nu/nu) female mice (Janvier Labs, Le Genest-Saint-Isle, France). Saline solution (NaCl 0.9M; 100 µL) containing 30 mg/mL D-Luciferin (Perkin Elmer, Wellesley, MA, USA) was injected intraperitoneally in the animals and the bioluminescence was quantified using an In Vivo Imaging System (Perkin Elmer, Wellesley, MA, USA) according to the manufacturer’s instructions. Tumor volume (V = L × l2 × 0.52) was determined with a caliper and the endpoint was determined as a tumor volume of 1000 mm^3. […] The mice were sacrificed when the tumor reached 1000 mm^3. […] No statistical methods were used to predetermine the sample size of the experiments. Animal facility availability and cost were used to determine sample sizes. Two independent cohorts of five mice per group were used for the tumor growth experiment with HD-MB03 cells and one cohort of five mice per group was used for the experiment with DAOY cells. Animal experiments were carried out in strict accordance with the recommendations in the Guide for the Care and Use of Laboratory Animals. Our experiments were approved by Direction de l’Action Sanitaire et Sociale of the Principality of Monaco and the ethics committee of Centre Scientifique de Monaco.
(§4) The growth rate of the tumors generated with HD-MB03 cells was determined using a linear regression method applied to the growth curves between the sizes of 400 mm^3 up to the endpoint using Prism 5 (Graphpad Software Inc., San Diego, CA, USA).
as §3

subcutaneous DAOY tumors = conditions: oral, thrice a week; axitinib 50 mg/kg, etoposide 30 mg/kg, combination 25 + 15 mg/kg
Method: For subcutaneous xenograft experiments, tumor cells expressing the luciferase (350,000 HDMB-Luc cells and 1.10^6 DAOY-Luc cells) were resuspended in 200 µL of 5 µg/mL Matrigel (Corning Inc., Corning, NY, USA) and injected subcutaneously in the flank of 5-week-old Rj:NMRI-Foxn1 nude (nu/nu) female mice (Janvier Labs, Le Genest-Saint-Isle, France). Saline solution (NaCl 0.9M; 100 µL) containing 30 mg/mL D-Luciferin (Perkin Elmer, Wellesley, MA, USA) was injected intraperitoneally in the animals and the bioluminescence was quantified using an In Vivo Imaging System (Perkin Elmer, Wellesley, MA, USA) according to the manufacturer’s instructions. Tumor volume (V = L × l2 × 0.52) was determined with a caliper and the endpoint was determined as a tumor volume of 1000 mm^3. […] The mice were sacrificed when the tumor reached 1000 mm^3. […]
as §4
Tumor samples were recovered from the animals and embedded in the OCT compound according to the manufacturer’s protocol (Thermo Fisher Scientific Inc., Waltham, MA, USA). […] All the images were then quantified with the CellProfiler 3.0 software.

HDF = experiment: MTT assay, 48 h exposure, human dermal fibroblasts; type: cell-based; conditions: Homo sapiens, HDF, Table 1, normal cells, mean ± SEM
Method: as §1

CHLA-01-Med = experiment: MTT assay, 48 h exposure, CHLA-01-Med MB cells; type: cell-based, human
Method: as §1

MB cells [9] = experiment: Cell viability, propidium iodine incorporation, MB cells; type: cell-based, human; conditions: 48 h, 5 µM
Method: (§5) Cell viability assays were conducted using a propidium iodine incorporation technique with an ADAM-sHIT automated cell counter (NanoEnTek, Gyeonggi-do, Korea) according to the manufacturer’s protocol.

C8-D1A astrocytes = experiment: Cell viability, propidium iodine incorporation, C8-D1A; type: cell-based, murine; conditions: 48 h; axitinib, cabozantinib, sunitinib 5 µM, etoposide 1 µM
Method: as §5

[10] = axitinib 50 mg/kg, etoposide 30 mg/kg, combination 25 + 15 mg/kg

Structure (SMILES): COc1cc([C@@H]2c3cc4c(cc3[C@@H](O[C@@H]3O[C@@H]5CO[C@@H](C)O[C@H]5[C@H](O)[C@H]3O)[C@H]3COC(=O)[C@H]23)OCO4)cc(OC)c1O [Etoposide, etoposide]
- IC50 (C8-D1A; Table 3, mean ± SEM): 2.2 ± 0.6 µM
- IC50 (DAOY [1]; Table 3): 0.2 µM
- IC50 (HD-MB03 [2]; Table 3): 0.09 ± 0.006 µM
- IC50 (D458; Table 3): 0.52 ± 0.15 µM
- reduction of proliferation of MB cells (MB cells [3]): more than 80%
- long-term proliferation (CPD) of DAOY cells (DAOY [4]): strongly impaired their proliferation
- long-term proliferation (CPD) of HD-MB03 cells (HD-MB03 [5]): strongly impaired their proliferation
- size of mixed spheroids [6]: strong decrease in the size of spheroids
- number of CD31-positive and αSMA-positive double-stained structures (vessels covered with pericytes) ([7]; metronomic oral treatment): decreased the number
- survival of mice with intracranial tumors ([7]; oral, five times a week, axitinib 50 mg/kg, etoposide 30 mg/kg, combination 25 + 15 mg/kg): no significant effect on survival
- number of endothelial cells (CD31-positive) and/or pericytes/cancer-associated fibroblasts (αSMA-positive) [8]: did not impact
- median time to reach the endpoint volume (1000 mm^3) [8, 10]: 18 days
- range of time to reach the endpoint volume (1000 mm^3) [8, 10]: 11 to 60 days
- tumor growth (lognormal mathematical modelling) (subcutaneous DAOY tumors): decreased tumor growth rates

Structure (SMILES): CCN(CC)CCNC(=O)c1c(C)[nH]c(/C=C2\C(=O)Nc3ccc(F)cc32)c1C [Sunitinib, sunitinib]
- IC50 (HDF): 1.8 ± 0.04 µM
- IC50 (C8-D1A; Table 1, normal cells, mean ± SEM, read-out: IC50 (µM) C8D1A): 5.7 ± 2.2 µM
- IC50 (DAOY [1]; Table 1): 7.9 ± 5.5 µM
- Specificity Index relative to C8D1A, DAOY (DAOY [1]; ratio IC50 C8-D1A / IC50 DAOY): 0.72
- Specificity Index relative to HDF, DAOY (DAOY [1]; ratio IC50 HDF / IC50 DAOY): 0.23
- IC50 (HD-MB03 [2]; Table 1): 4.6 ± 0.3 µM
- Specificity Index relative to C8D1A, HDMB (HD-MB03 [2]; ratio IC50 C8-D1A / IC50 HD-MB03): 1.24
- Specificity Index relative to HDF, HD-MB03 (HD-MB03 [2]; ratio IC50 HDF / IC50 HD-MB03): 0.39
- IC50 (D458; Table 1): 4.2 ± 0.3 µM
- Specificity Index relative to C8D1A, D458 (D458; ratio IC50 C8-D1A / IC50 D458): 1.36
- Specificity Index relative to HDF, D458 (D458; ratio IC50 HDF / IC50 D458): 0.43
- IC50 (CHLA-01-Med; Homo sapiens, Table 1, MTT, 48 h exposure, mean ± SEM): 7.5 ± 0.8 µM
- Specificity Index relative to C8D1A, CHLA-01-Med (CHLA-01-Med; ratio IC50 C8-D1A / IC50 CHLA-01-Med): 0.76
- Specificity Index relative to HDF, CHLA-01-Med (CHLA-01-Med; ratio IC50 HDF / IC50 CHLA-01-Med): 0.24
- viability of MB cells (MB cells [9]): decreased the viability of most MB cells
- viability of C8-D1A normal cells (C8-D1A astrocytes): strongly induced the death
